Laboratory results from patent US20200276187A1, “SYSTEMS AND METHODS FOR A[…]-INDUCED EUPHORIA” (Purdue Pharma L.P., priority 2014, published 2020).

System: rats
Assay: Conditioned Place Preference (CPP) animal model of opioid-induced euphoria
Details: subcutaneous, 6 conditioning days of 30 min sessions, preference assessed on day 8, time in drug-paired minus vehicle-paired chamber
Method: It was administered in a volume of 2 ml/kg. […] The oxycodone was administered as the hydrochloride salt form and was dissolved in saline. The subcutaneous volume for each was 2 ml/kg.
For this Example, a 6 day unbiased, counterbalanced paradigm was employed. Innate preference was tested on day 1 (preconditioning day or baseline). On this day, naïve animals (rats) had free access to all three compartments for 30 minutes. The time spent in each chamber was automatically recorded. For conditioning sessions (days 2-7), animals were randomly assigned to compartment pairings for thirty minutes. During the first conditioning session (day 2), animals were randomly divided. […] Control animals received vehicle plus vehicle during each pairing. This conditioning procedure was replicated over five more days (thirty minute sessions for 6 total conditioning days). On day 8, preference was assessed. Each animal was allowed to roam freely about all three compartments for 30 minutes. The removable doors remained opened. The time spent in each compartment was automatically recorded. Conditioned Place Preference (“CPP”) (seconds) is represented as the difference between the time spent in the drug-paired and vehicle-paired chambers on the test day and is indicative of the rewarding properties associated with the compound(s) studied.

For `COc1ccc2c3c1O[C@H]1C(=O)CC[C@@]4(O)[C@@H](C2)N(C)CC[C@]314` [oxycodone], the “Conditioned Place Preference (CPP) as compared to vehicle treated controls” value was “produces a statistically significant CPP”.
